# In ChEMBL document CHEMBL3639039, “Small molecule inhibitors of RGS proteins” (2014):
# Tests used:
# [1] = target: Regulator of G-protein signaling 16 (Homo sapiens, UniProt O15492); assay: Inhibitory Assay: FCPIA Characterization of RGS Inhibitory Activity: CCG-50014 (FIG. 1) was originally identified as a potential inhibitor of RGS8 and RGS16 in a polyplex high throughput screen to identify inhibitors of the RGS-Gα interaction [4]. This activity was confirmed by analyzing the effect of CCG-50014 on several different RGS proteins with freshly reordered compound using multiplexed …
# Chain of Regulator of G-protein signaling 16 (O15492 whole entry, looked up, stated change not applied): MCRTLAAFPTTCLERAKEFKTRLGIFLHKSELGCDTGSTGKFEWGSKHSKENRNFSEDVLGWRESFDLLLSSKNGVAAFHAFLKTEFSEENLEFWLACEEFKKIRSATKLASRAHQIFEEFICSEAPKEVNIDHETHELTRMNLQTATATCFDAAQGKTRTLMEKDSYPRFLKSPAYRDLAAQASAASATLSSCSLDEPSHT
# [2] = target: Regulator of G-protein signaling 19 (Homo sapiens, UniProt P49795); assay: as above
# Chain of Regulator of G-protein signaling 19 (P49795 whole entry, looked up, change not shown): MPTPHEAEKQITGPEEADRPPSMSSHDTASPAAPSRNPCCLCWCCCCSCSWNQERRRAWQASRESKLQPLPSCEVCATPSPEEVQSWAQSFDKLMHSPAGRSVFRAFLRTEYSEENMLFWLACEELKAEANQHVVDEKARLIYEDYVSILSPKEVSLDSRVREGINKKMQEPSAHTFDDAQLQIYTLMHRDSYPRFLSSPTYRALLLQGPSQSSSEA
structure (smiles),measurement,setting,value
Cc1ccc(-n2sc(=O)n(Cc3ccc(F)cc3)c2=O)cc1,IC50,[1],3500 nM
same,IC50,[2],120 nM
